This note sets out measurements from the supplement of paper PMC11208160.

The series in a line: recombinant barcode read abundance after kanamycin selection (control-corrected) (log10(CPM+1)); higher = more efficient recombination; sequences stand for … in AGTGCAGAGAAAATCGGCCAGTTTTCTCTGCCTGCAGTCCGCATGCCGT…AGATTTATGCAGCGGACTGCCTTTCTCCCAAAGTGATAAACCGGACAGTATCATGGACCGGTTTTCCCGGTAATCCGTATTTGCAAGGTTGGTTTCACT; site = the 11-nt target. The procedure, abridged:
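Recombination efficiency draws on barcodes counted at recombinant junctions in a pooled E. coli screen of targets paired with IS621 bridge RNA target-binding loops. The counts were converted to counts per million, averaged and corrected against the chloramphenicol/ampicillin LB agar control, then reported as log10(CPM+1). Selection plates held chloramphenicol/ampicillin/kanamycin with 0.1 mM IPTG, with two replicates per condition.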
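Further: IS621 recombinase and bridge RNA in Escherichia coli cells.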

As for “CCTATGTCTTGGGTTCTAACCTGTTGCTA (site ACTATGTCTTG)”, the “recombinant barcode read abundance (log10)” value is 0.0985.

As for “CCTATGTCTTGGGTTCTAACCTGTTGCTA (site CCTATGTCTTA)”, the “recombinant barcode read abundance (log10)” value turned out to be 0.528. As for “CCTCCCTCTTGGGTTCTAACCTGTTGCTA (site CCTCCCTCTCA)”, the figure is 0.481; as for “CCTCCCTCTTGGGTTCTAACCTGTTGCTA (site CCTCCCTCTTA)”, 1.84; as for “CCTGACACTTGGGTTCTAACCTGTTGCGG (site CCTGACACTCC)”, 1.66. In the case of “CCTGACACTTGGGTTCTAACCTGTTGCGG (site CCTTACACTCC)” it was 0.232; in that of “CCTGGGACTTGGGTTCTAACCTGTTGCGC (site CCTGGGACTAC)”, 0.684. For the sequence “CCTGGGACTTGGGTTCTAACCTGTTGCGC (site CCTGGGACTCC)”, the “recombinant barcode read abundance (log10)” value stood at 0.347. In the case of “CCTGGGACTTGGGTTCTAACCTGTTGCGC (site CCTGGGACTGC)” it was 1.24.

For “CCTGGGACTTGGGTTCTAACCTGTTGCGC (site CCTGGGACTTC)”, the “recombinant barcode read abundance (log10)” value was found to be 0.214. “CCTGGGACTTGGGTTCTAACCTGTTGCGG (site CCTGGGACTAC)”: the “recombinant barcode read abundance (log10)” value stood at 0.

As to “CCTGGGACTTGGGTTCTAACCTGTTGCGG (site CCTGGGACTCC)”, the “recombinant barcode read abundance (log10)” value is 2.29.

As to “CCTGGGACTTGGGTTCTAACCTGTTGCGG (site CCTGGGACTGC)”, the “recombinant barcode read abundance (log10)” value was 0.532. Regarding “CCTGGGACTTGGGTTCTAACCTGTTGCGG (site CCTGGGACTTC)”, the “recombinant barcode read abundance (log10)” value was determined as 0.474. Regarding “CCTGGGACTTGGGTTCTAACCTGTTGCGT (site CCTGGGACTAC)”, the “recombinant barcode read abundance (log10)” value was 1.31. As for “CCTGGGACTTGGGTTCTAACCTGTTGCGT (site CCTGGGACTCC)”, the figure is 0.807; as for “CCTGGGACTTGGGTTCTAACCTGTTGCGT (site CCTGGGACTGC)”, 0.178.

On to “CCTGGGACTTGGGTTCTAACCTGTTGCGT (site CCTGGGACTTC)”, for which the “recombinant barcode read abundance (log10)” value was 0.0691. In the case of “CCTGTAGCTTGGGTTCTAACCTGTTGCCT (site CCGGTAACTAG)” it was 0.0829; in that of “CCTGTAGCTTGGGTTCTAACCTGTTGCCT (site CCTGTAGCTAG)”, 1.13; in that of “CCTTAGCCTTGGGTTCTAACCTGTTGCCT (site CCTTACCCTAG)”, 0.0511. As for “CCTTAGCCTTGGGTTCTAACCTGTTGCCT (site CCTTAGCCTAG)”, the figure is 0.385.

Regarding “CCTTCTACTTGGGTTCTAACCTGTTGCTA (site CCTTCTACTAG)”, the “recombinant barcode read abundance (log10)” value turned out to be 0.0484. “CCTTCTACTTGGGTTCTAACCTGTTGCTA (site CCTTCTACTTA)”: the “recombinant barcode read abundance (log10)” value is 0.392. In the case of “CCTTGCTCTTGGGTTCTAACCTGTTGCCT (site CCTTGCTCTAG)” it was 0.317; in that of “CCTTGCTCTTGGGTTCTAACCTGTTGCCT (site CCTTGGACTAG)”, 0.114.

In the case of “CCTTGGACTTGGGTTCTAACCTGTTGCAA (site CCTTGGACTTT)”, the “recombinant barcode read abundance (log10)” value was determined as 0.546. As for “CCTTGGACTTGGGTTCTAACCTGTTGCAA (site GCTTGGACTCT)”, the “recombinant barcode read abundance (log10)” value is 0.0226.

In the case of “CCTTGGTCTTGGGTTCTAACCTGTTGCCT (site CCTTGGTCTAG)”, the “recombinant barcode read abundance (log10)” value amounted to 0.216. As to “CCTTGGTCTTGGGTTCTAACCTGTTGCCT (site GCTTGGCCTAG)”, the “recombinant barcode read abundance (log10)” value stood at 0.107.

As to “CCTTTCACTTGGGTTCTAACCTGTTGCCT (site CCTATCCCTAG)”, the “recombinant barcode read abundance (log10)” value was 0.029. In the case of “CCTTTCACTTGGGTTCTAACCTGTTGCCT (site CCTTTCACTAG)” it was 0.228; in that of “CGAATCGCTTGGGTTCTAACCTGTTGCCT (site CGAATCACTAG)”, 0.374.

For the sequence “CGAATCGCTTGGGTTCTAACCTGTTGCCT (site CGAATCCCTAG)”, the “recombinant barcode read abundance (log10)” value worked out at 0.0216. As for “CGAATCGCTTGGGTTCTAACCTGTTGCCT (site CGAATCGCTAG)”, the figure is 0.994. “CGAATCGCTTGGGTTCTAACCTGTTGCCT (site CGAATCTCTAG)”: the “recombinant barcode read abundance (log10)” value is 0.084. In the case of “CGAATCTCTTGGGTTCTAACCTGTTGCCT (site CGAATCACTAG)” it was 0.0112; in that of “CGAATCTCTTGGGTTCTAACCTGTTGCCT (site CGAATCCCTAG)”, 0.221.

For the sequence “CGAATCTCTTGGGTTCTAACCTGTTGCCT (site CGAATCGCTAG)”, the “recombinant barcode read abundance (log10)” value is 0. As for “CGAATCTCTTGGGTTCTAACCTGTTGCCT (site CGAATCTCTAG)”, the figure is 0.616; as for “CGAATGTCTTGGGTTCTAACCTGTTGCTG (site CGAATGTCTCA)”, 1.2; as for “CGAATGTCTTGGGTTCTAACCTGTTGCTG (site GGTATGTCTCA)”, 0.202. In the case of “CGACTCCCTTGGGTTCTAACCTGTTGCGT (site CGACTCCCTAC)”, the “recombinant barcode read abundance (log10)” value was found to be 1.14.

For “CGACTCCCTTGGGTTCTAACCTGTTGCGT (site GTCAAGTCTGA)”, the “recombinant barcode read abundance (log10)” value turned out to be 0.391. In the case of “CGACTGTCTTGGGTTCTAACCTGTTGCCT (site AAGTACACTCA)” it was 0.0207; in that of “CGACTGTCTTGGGTTCTAACCTGTTGCCT (site CGACTGTCTAG)”, 1.92. With “CGAGAACCTTGGGTTCTAACCTGTTGCCT (site AGAGAACCTAG)”, the “recombinant barcode read abundance (log10)” value was 0.0999. As for “CGAGAACCTTGGGTTCTAACCTGTTGCCT (site CGAGAACCTAG)”, the figure is 1.67. With “CGAGAACCTTGGGTTCTAACCTGTTGCCT (site GGAGAACCTAG)”, the “recombinant barcode read abundance (log10)” value was found to be 0.0316.

With “CGAGAACCTTGGGTTCTAACCTGTTGCCT (site TGAGAACCTAG)”, the “recombinant barcode read abundance (log10)” value was 0.12. In the case of “CGAGCAACTTGGGTTCTAACCTGTTGCTT (site CGAGCAACTAA)”, the “recombinant barcode read abundance (log10)” value is 0.0517.

For “CGAGCAACTTGGGTTCTAACCTGTTGCTT (site CGTGTAACTAA)”, the “recombinant barcode read abundance (log10)” value was determined as 0.181. In the case of “CGAGCTCCTTGGGTTCTAACCTGTTGCAT (site CGAGCTCCTAA)” it was 0.0507. In the case of “CGAGCTCCTTGGGTTCTAACCTGTTGCAT (site CGAGCTCCTAC)” it was 0.154. For “CGAGCTCCTTGGGTTCTAACCTGTTGCAT (site CGAGCTCCTAG)”, the “recombinant barcode read abundance (log10)” value worked out at 0.425.

As to “CGAGCTCCTTGGGTTCTAACCTGTTGCAT (site CGAGCTCCTAT)”, the “recombinant barcode read abundance (log10)” value was determined as 1.86.

For the sequence “CGAGCTCCTTGGGTTCTAACCTGTTGCCC (site CGAGCTCCTGG)”, the “recombinant barcode read abundance (log10)” value amounted to 0.591. As for “CGAGCTCCTTGGGTTCTAACCTGTTGCCC (site GGAGCTCCTTG)”, the figure is 0.512; as for “CGAGCTCCTTGGGTTCTAACCTGTTGCTT (site CGAGCTCCTAA)”, 0.324; as for “CGAGCTCCTTGGGTTCTAACCTGTTGCTT (site CGAGCTCCTAC)”, 0.0191. In the case of “CGAGCTCCTTGGGTTCTAACCTGTTGCTT (site CGAGCTCCTAG)”, the “recombinant barcode read abundance (log10)” value was found to be 1.1. With “CGAGCTCCTTGGGTTCTAACCTGTTGCTT (site CGAGCTCCTAT)”, the “recombinant barcode read abundance (log10)” value was determined as 0.337. Take “CGAGGGGCTTGGGTTCTAACCTGTTGCCT (site CGAGGGACTAG)”: the “recombinant barcode read abundance (log10)” value was determined as 0.127. As for “CGAGGGGCTTGGGTTCTAACCTGTTGCCT (site CGAGGGCCTAG)”, the figure is 0.0526. In the case of “CGAGGGGCTTGGGTTCTAACCTGTTGCCT (site CGAGGGGCTAG)”, the “recombinant barcode read abundance (log10)” value is 0.369.

With “CGAGGGGCTTGGGTTCTAACCTGTTGCCT (site CGAGGGTCTAG)”, the “recombinant barcode read abundance (log10)” value came out at 0.35. As for “CGATAGCCTTGGGTTCTAACCTGTTGCCT (site AGATAGCCTAG)”, the figure is 0.024. In the case of “CGATAGCCTTGGGTTCTAACCTGTTGCCT (site CGATAGCCTAG)” it was 0.643; in that of “CGATAGCCTTGGGTTCTAACCTGTTGCCT (site GGATAGCCTAG)”, 0.132. In the case of “CGATAGCCTTGGGTTCTAACCTGTTGCCT (site TGATAGCCTAG)” it was 0; in that of “CGATCTACTTGGGTTCTAACCTGTTGCAG (site AAGGGGCCTAG)”, 0.23; in that of “CGATCTACTTGGGTTCTAACCTGTTGCAG (site CGATCTACTCT)”, 0.0308.

For “CGATTAACTTGGGTTCTAACCTGTTGCCT (site CGATTAACTAG)”, the “recombinant barcode read abundance (log10)” value was 0.139. In the case of “CGATTAACTTGGGTTCTAACCTGTTGCCT (site CGATTACCTAG)” it was 0.361.

In the case of “CGATTAACTTGGGTTCTAACCTGTTGCCT (site CGATTAGCTAG)”, the “recombinant barcode read abundance (log10)” value is 0.107. As for “CGATTAACTTGGGTTCTAACCTGTTGCCT (site CGATTATCTAG)”, the figure is 0.0439; as for “CGCAAATCTTGGGTTCTAACCTGTTGCCT (site CGAAAATCTAG)”, 0.0245.
